Measurements published in patent US20220000952A1, “METHOD PREPARING ANTRODIA CINNAMOMEA EXTRACT AND ANTRODIA CINNAMOMEA COMPOSITION, AND PHARMACEUTICAL COMPOSITION” (priority 2018, published 2022).

Test system: bone marrow inhibition of chemotherapeutic drug Cisplatin
Assay: Efficacy test for improving the bone marrow inhibition of chemotherapeutic drug cisplatin in C57BL/6 immune normal mice
Assay type: in vivo
Conditions: cisplatin alone 20 mg/kg i.p. day 1
Procedure: The animals used in this study were C57B116 mice which were commercially available from Taiwan Experimental Animal Centers and six weeks old. The feeding temperature was controlled to be 25±2° C., the illumination time was 08: 00-20: 00, sufficient feed and drinking water were provided daily, and the padding was replaced twice a week.
The cisplatin (cis, 20 mg/kg) was administered by intraperitoneal injection on the first day. The Antrodia cinnamomea composition (400 mg/kg) was administered in a tube-teed manner on the 1st to 5th day, and the time of tube feeding on the first day was 4 hours after the chemotherapeutic drug was administered. The animal groups were the control group,Cis and Antrodia cinnamomea compositions (AC) respectively, with 6 mice in each group and 18 mice in 3 groups.
The experimental animals were sacrificed in a CO2 manner on the sixth day, the thigh bones of the mice were surgically removed, both ends of the bones were cut, bone marrow cells were flushed out, and after centrifugation and washing, the cells were added to MethoCult M3334 medium or MethoCult M3234 medium, and allowed to stand in a humidified incubator containing 5% CO2 at 37° C. and cultured, the former was cultured for 48 hours to observe by microscope and calculate the number of CFU-E (Colony-forming unit-erythroid) colonies, and the latter was cultured for 7 days to observe by microscope and calculate the number of CFU-GM(Colony-forming unit-granulocyte, macrophage) colonies. The colony numbers of CFU-E and CFU-GM were counted by observation in the whole field of view.
Before the experimental animals were sacrificed, the whole blood was collected in a cheek blood collection manner, and anticoagulant whole blood was used for complete blood count (CBC) to determine the number of peripheral white blood cells.
One-way analysis of variance (One-Way ANOVA) was used for data analysis. When the analysis result reached a significant level, Fisher LSD was used for subsequent comparison.

N.N.[Cl][Pt][Cl] [cisplatin]
number of white blood cells (peripheral blood) (FIG. 5): can reduce the number of white blood cells
number of CFU-GM (myeloid leukocyte precursor cells) (FIG. 6): inhibits the number of myeloid leukocyte precursor cells CFU-GM
number of CFU-E (bone marrow red blood cell precursor cells) (FIG. 7): can inhibit the number of bone marrow red blood cell precursor cells CFU-E
